From patent US20260373119A1, “NOVEL COMPOUND, AND COMPOSITION FOR PREVENTING OR TREATING HER2-POSITIVE CANCER, COMPRISING SAME” (EWHA UNIVERSITY - INDUSTRY COLLABORATION FOUNDATION, priority 2022, published 2026)
Values after ≈ are worked out from the molar mass of the structure shown.

Legend:
[1] = molecular target: T1, ELF3-MED23 protein-protein interaction (Homo sapiens, UniProt Q9ULK4); assay: SEAP reporter assay, ELF3-MED23 PPI inhibition (293T kidney cells); assay type: cell-based
T1 construct: followed by the addition of either the candidate compound or MED23 protein constructs; endogenous in cells; host or cells: 293T kidney cells (MED23 endogenous; GAL4-ELF3 transfected)
T1 sequence (Q9ULK4 1-1368): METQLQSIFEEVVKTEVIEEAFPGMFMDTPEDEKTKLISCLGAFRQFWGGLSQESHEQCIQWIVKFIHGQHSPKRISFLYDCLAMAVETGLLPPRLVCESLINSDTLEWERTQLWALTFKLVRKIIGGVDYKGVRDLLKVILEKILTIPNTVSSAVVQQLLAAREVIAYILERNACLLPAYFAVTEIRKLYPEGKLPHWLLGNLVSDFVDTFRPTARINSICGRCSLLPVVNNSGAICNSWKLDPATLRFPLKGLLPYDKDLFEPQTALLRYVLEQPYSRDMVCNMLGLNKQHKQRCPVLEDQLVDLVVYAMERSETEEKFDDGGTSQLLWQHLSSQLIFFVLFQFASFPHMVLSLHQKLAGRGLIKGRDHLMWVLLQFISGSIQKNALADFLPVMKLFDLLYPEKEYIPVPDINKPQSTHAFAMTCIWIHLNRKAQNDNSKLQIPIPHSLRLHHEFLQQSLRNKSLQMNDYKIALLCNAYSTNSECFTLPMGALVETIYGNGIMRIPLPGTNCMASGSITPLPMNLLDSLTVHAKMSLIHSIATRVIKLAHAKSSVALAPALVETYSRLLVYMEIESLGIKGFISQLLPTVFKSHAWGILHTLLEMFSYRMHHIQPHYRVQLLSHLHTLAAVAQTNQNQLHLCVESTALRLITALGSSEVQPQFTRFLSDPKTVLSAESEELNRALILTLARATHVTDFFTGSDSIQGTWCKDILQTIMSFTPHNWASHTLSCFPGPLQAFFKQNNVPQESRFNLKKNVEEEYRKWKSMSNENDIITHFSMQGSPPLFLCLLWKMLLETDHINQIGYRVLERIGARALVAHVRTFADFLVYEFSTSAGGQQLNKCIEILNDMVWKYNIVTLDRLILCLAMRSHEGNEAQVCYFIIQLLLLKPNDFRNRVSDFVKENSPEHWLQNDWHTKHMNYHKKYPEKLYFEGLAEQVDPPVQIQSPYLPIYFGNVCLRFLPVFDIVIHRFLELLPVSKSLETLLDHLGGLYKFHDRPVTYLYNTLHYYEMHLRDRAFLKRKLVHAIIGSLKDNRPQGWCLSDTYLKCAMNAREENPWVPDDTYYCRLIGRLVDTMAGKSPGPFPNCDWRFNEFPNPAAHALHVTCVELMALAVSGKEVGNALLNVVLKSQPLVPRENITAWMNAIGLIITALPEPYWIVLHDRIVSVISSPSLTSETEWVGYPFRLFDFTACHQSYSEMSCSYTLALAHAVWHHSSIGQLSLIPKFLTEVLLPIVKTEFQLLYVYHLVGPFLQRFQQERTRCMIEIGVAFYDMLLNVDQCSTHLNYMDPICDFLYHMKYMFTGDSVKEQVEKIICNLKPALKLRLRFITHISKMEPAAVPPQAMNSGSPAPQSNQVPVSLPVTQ

[2] = molecular target: Nluc-ELF3 / Cluc-MED23391-462 (Homo sapiens, UniProt Q9ULK4); assay: split luciferase biosensor assay; assay type: cell-based; settings: dose-dependent
Procedure: The biosensor used for the assay was prepared using the In-Fusion® HD Cloning Kit with firefly (Photinus pyralis) luciferase. The luciferase enzyme was split into two fragments (Nluc and Cluc). The full-length ELF3 (wild-type) and MED23 mutants were cloned into the […] and KpnI sites, and the NotI and KpnI sites of p3Xflag-myc-CMV26, respectively. The full-length cDNA of human ELF3 (accession number NM_001114309.1) was fused to the N-terminal fragment of split luciferase (Nluc), while the […] of MED23 (accession number NM_001270521.1) was fused to the C-terminal of split luciferase (Cluc).
Bioluminescence intensity, complementarily generated by ELF3-MED23 binding, was measured using this method (FIG. 3B).

EGFR = EGFR (Homo sapiens, UniProt P00533); assay: kinase profiling, EGFR; assay type: biochemical; settings: read-out: In vitro kinase inhibitory activity (%)
Procedure: Kinase inhibitory activity of the candidate compound at 10 μM and 25 μM was assessed using Eurofins Kinase Profiling Services. Inhibitory effects on c-RAF, EGFR, ErbB2, ErbB4, and PI3 kinase were analyzed according to the Kinase Profiler Service Assay protocol.

solubility = assay type: physicochemical; settings: pH 7

Sequence of EGFR (P00533 669-1210 limits assumed): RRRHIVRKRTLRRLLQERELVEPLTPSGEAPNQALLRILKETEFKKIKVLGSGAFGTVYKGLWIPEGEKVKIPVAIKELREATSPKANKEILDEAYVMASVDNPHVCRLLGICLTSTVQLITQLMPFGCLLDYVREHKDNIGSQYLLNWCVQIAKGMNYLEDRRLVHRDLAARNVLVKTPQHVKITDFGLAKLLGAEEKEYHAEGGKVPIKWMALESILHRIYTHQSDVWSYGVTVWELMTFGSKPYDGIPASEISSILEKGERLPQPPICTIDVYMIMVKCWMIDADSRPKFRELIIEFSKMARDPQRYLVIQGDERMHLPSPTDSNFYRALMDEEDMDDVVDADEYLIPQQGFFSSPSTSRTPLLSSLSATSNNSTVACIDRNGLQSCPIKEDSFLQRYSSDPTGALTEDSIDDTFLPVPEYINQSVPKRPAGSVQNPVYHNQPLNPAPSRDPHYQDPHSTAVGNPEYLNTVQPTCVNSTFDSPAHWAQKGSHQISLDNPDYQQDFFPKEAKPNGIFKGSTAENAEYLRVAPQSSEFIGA

IC50 ([1]; ELF3-MED23 PPI): 1.18 ± 0.34 µM
inhibition at 10 µM ([1]; HEK-293T, 10 μM): 95%
inhibition at 10 µM (EGFR; 10 μM): 0%
inhibition at 25 µM (EGFR; 25 μM): 0%
solubility (solubility): 103.2 ± 0.6 µg/mL (≈ 328 µM)
SMILES: CC(=O)N1N=C(c2cccc(O)c2)CC1c1ccc(Cl)cc1 (stereo not drawn) [Compound 15, 1-[5-(4-Chlorophenyl)-3-(3-hydroxyphenyl)-4,5-dihydropyrazol-1-yl]-ethanone]
luciferase activity [2]: dose-dependently and significantly reduced
